From paper PMC9645260, “Small-molecule inhibitors of P-Rex guanine-nucleotide exchange factors” (Small GTPases, 2022) come the findings set out here.

Molecules are shown by their SMILES.

The test system of one data set is HEK-293 cells. The experiment in a line: Cell cycle stages by propidium iodide flow cytometry. Format: cell-based. The method, then:
Human embryonic kidney 293 (HEK-293) cells were grown at 37°C in a humidified 5% CO2 atmosphere in Dulbecco’s modified Eagle medium (DMEM, Gibco) supplemented with 10% foetal bovine serum (FBS), 100 units/ml penicillin and 100 µg/ml streptomycin. Cells were passaged by tryptic digest 1:4 approximately every 2 days. To measure cell cycle stages, 2 ml HEK293 cells were plated per well of a 6-well dish (Thermo Scientific, Nunc) at 10^5 cells/ml. After 24 h, the medium was replaced with fresh medium containing various concentrations of PREX-in1, as indicated, or 10 μM NSC23766, or vehicle control (0.1% DMSO), and cells were incubated for a further 24 h. The medium was removed but kept aside to recover any detached cells. Wells were washed with PBS, and cells recovered by trypsinization. Cell suspensions were pooled with the culture supernatant and centrifuged at 433 × g for 5 min at RT. Cells were washed in PBS, resuspended in ice-cold 70% ethanol/PBS, and incubated for 30 min at 4°C for fixation and permeabilization. Cells were washed once more in PBS, then stained with 50 µg/ml propidium iodide in PBS containing 100 µg/ml RNase for 30 min at 37°C. Cells were analysed by flow cytometry for the intensity of propidium iodide staining using a FACSCalibur flow cytometer. 10,000 cells were analysed per sample. Data analysis was done using FloJo software.

In data set [1] the test system is PAE cells expressing eGFP-P-Rex1. Put plainly: PAE cell morphology after PDGF stimulation. Format: cell-based, pig. The note with it: 1 µM for 15 min. As to the method: Pig aortic endothelial (PAE) cells, which stably overexpress PDGF receptor beta, were grown at 37°C in a humidified 5% CO2 atmosphere in Ham’s F-12 medium with L-glutamine (PAA) supplemented with 10% FBS, 100 units/ml penicillin and 100 µg/ml streptomycin (complete medium). Cells were passaged by tryptic digest 1:4 approximately every 2 days. PAE cells were transfected with eGFP-P-Rex1 by electroporation as described, resuspended in complete medium without antibiotics and plated onto sterile 22 mm glass coverslips in 6-well plates. After 12 h, cells were washed twice in Ham’s F-12 and serum starved in Ham’s F-12 containing 1% fatty acid-free BSA) for 8 h. PREX-in1 was added to the medium to a concentration of 1 µM, or cells were mock-treated with vehicle control (0.05% DMSO), for 15 min at 37°C. Cells were stimulated with 10 ng/ml PDGF for 10 min, or were mock-stimulated, and then fixed in 4% paraformaldehyde, 50 mM Pipes pH 6.8, 1 mM EGTA, 1 mM MgCl2 for 15 min at RT. Cells were washed in PBS, permeabilized for 10 min in PBS containing 0.2% Triton X-100, washed twice in PBS and once in PBS, 0.1% BSA. The F-actin cytoskeleton was stained by incubating samples with TRITC-Phalloidin (Sigma P1951) in PBS, 0.1% BSA for 45 min at RT in the dark. Coverslips were washed twice in PBS, rinsed once in water, and mounted onto slides using Aqua Polymount (Polysciences, Inc.). Samples were imaged using an AxioImager D2 fluorescence microscope (Zeiss, ×200 magnification), taking 15–20 representative images for each duplicate coverslip. Images were analysed blinded to experimental design using ImageJ, for both manual and automated analysis. Using manual analysis, each cell was assigned to a morphology category (basal, with lamellipodia and membrane ruffles, spread with ruffles). With automated analysis, the surface area and circularity of all cells were quantified using the ‘Set Measurements’ analysis tools of ImageJ after assigning a mask to each cell. To determine the proportion of spread cells, cells with a surface area more than 50% larger than the mean under basal conditions (1246 μm^2) were considered spread. eGFP-P-Rex1 expressing cells were compared to non-green fluorescent cells on the same coverslip.

Data set [2] deals with primary mouse neutrophils. The experiment in a line: Neutrophil ROS production, fMLP-stimulated. Format: cell-based. The note with it: 10 µM fMLP. As to the method: Prex^−/− mice (Prex1^−/−Prex2^−/−) with general P-Rex deficiency were described previously and were compared to Prex^+/+ (Prex1^+/+Prex2^+/+) control mice on the same genetic background (C57Bl6/129Ola backcrossed seven times to C57Bl6). Mice were group-housed (up to 5) under specific opportunistic pathogen-free isolator conditions in Babraham’s small animal barrier facility that uses 12 h light/dark cycles with dusk and dawn settings, and were fed chow diet and water ad libitum. Mice from both sexes were used for experiments, at young-adult age (between 8 and 14 weeks), and were sex- and age-matched between genotypes within experiments. […]
Mature primary neutrophils were isolated from the bone marrow of age- and sex-matched Prex^+/+ and Prex^−/− mice freshly each day at 4°C, using Percoll^Plus (GE Healthcare) gradient, as described, using endotoxin-free media throughout. Isolated neutrophils were 70–90% pure, as assessed by KwikDiff staining of cytospins. ROS production was measured by real-time chemiluminescence assay as described, except that neutrophils were incubated with PREX-in1 before the assay. […] Real-time ROS production was recorded in a Berthold MicroLumat Plus luminometer (Berthold Technologies) at 37°C, for 2.5 min with fMLP stimulation or for 10 min with PMA stimulation. […]

For the molecule `COc1ccc(-c2[nH]nc3c2C(c2ccc(-c4ccc(Cl)cc4)o2)C(C#N)=C(N)O3)cc1` (centres unmarked) [PREX-in1, 6-amino-4-[5-(4-chlorophenyl)-2-furyl]-3-(4-methoxyphenyl)-2,4-dihydropyrano[2,3-c]pyrazole-5-carbonitrile], the cytotoxic effects result in the data set on HEK-293 cells (1 µM) is listed as “did not observe cytotoxic effects”. Moreover, the “cell death (sub-G1 phase)” value in the data set with HEK-293 cells (24 h treatment, 10 µM) is “promotes cell death”. Also, the “morphology of mock-transfected cells” value in data set [1] is reported as “did not affect the morphology”. Further, the “P-Rex1 dependent spreading of PDGF-stimulated cells” value in data set [1] (10 ng/ml PDGF) is reported as “did inhibit”. In data set [1] (automated analysis), the cell circularity result is recorded as “lack of effect”. Moreover, the “proportion of cells with lamellipodia or membrane ruffles” value in data set [1] (manual analysis) is recorded as “did not affect the proportion of cells with lamellipodia or membrane ruffles”. For the same molecule, the inhibition at 1 µM in data set [2] (Mus musculus, Neutrophil, 7 min, Prex+/+ neutrophils, 1 µM for 7 min, read-out: inhibition of ROS production overall) worked out at 50%. The “effect on ROS response” value in data set [2] (Prex-/- neutrophils, 1 µM) is on record as “did not affect”.
